Results on one compound are retold here after US7563924B2, “9-chloro-15-deoxyprostaglandin derivatives, process for their preparation and their use as medicaments” (Schering Aktiengesellschaft, priority 2005, dated 2009).

The test system of the test is TNFα release from activated monocytic cells. Description: Cytokine release assay in vitro (TNFα, ELISA). The format is cell-based, human. The note with it: 1 μM, 18 hours. As for the experimental part: Human donor monocyte-derived dendritic cells are cultured in RPMI-1640 containing 10% fetal bovine serum for six days in the presence of 10 ng/mL IL-4 and 200 ng/mL GM-CSF. The cells are activated with various activation stimuli: 10 ng/mL LPS (Sigma), 5 μg/mL recombinant human CD-40 ligand (R&D Systems), or 5 μM Human CpG-DNA (HyCult Biotechnology) in the presence of prostaglandin E2 (PGE2) (1 μM), vehicle control (DMSO) or test substances (1 μM) for 18 hours. The levels of cell culture supernatant TNFα for individual donors is measured by commercial ELISA kits.
Background: In an ELISA, binding on a coated surface is turned into a signal by an enzyme label.

Regarding `CCCCC[C@H](O)/C=C/[C@H]1[C@H](O)CC(=O)[C@@H]1C/C=C\CCCC(=O)O` [PGE2, Prostaglandin E2], the TNFα reads like this: (CD40 ligand, Donor 3) 147.9 pg/mL; (CD40 ligand, Donor 4) 87.0 pg/mL; (CD40 ligand, Donor 6) 54.2 pg/mL; (CpG, Donor 1) 104.5 pg/mL; (CpG, Donor 3) 70.0 pg/mL; (CpG, Donor 6) 106.2 pg/mL. In addition, the TNFα came out at 0.0 pg/mL (LPS, Donor 4) and 174.8 pg/mL (LPS, Donor 6).
